Assay results reported in patent US9605041B2, “Regulatory proteins and inhibitors” (INTRA-CELLULAR THERAPIES, INC., priority 2009, dated 2017).
“Also recorded” adds a separate entry of the source.

Legend:
[1] = molecular target: T1, gSAP-16K (16 kDa band) (Homo sapiens, UniProt A4D1B5); assay: In vitro and intact cell photolabeling with 125I-G01 / 3H-G01; type: binding; conditions: 20 nM 125I-G01 on membranes or 3H-G01 on intact cells, photolysis
T1 construct: is rapidly processed into a ˜16 kDa C-terminal fragment (gSAP-16K); endogenous in cells; host or cells: HEK293 membrane preparations (125I-G01) and intact HEK293 cells (3H-G01)
T1 sequence (A4D1B5 733-854): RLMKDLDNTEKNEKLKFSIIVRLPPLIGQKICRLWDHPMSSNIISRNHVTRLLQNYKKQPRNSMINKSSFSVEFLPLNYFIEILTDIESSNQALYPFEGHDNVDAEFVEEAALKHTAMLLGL
Method: For in vitro labeling, membrane pellets are prepared as described above and resuspended in 50 mM Hepes, pH 7.4, 150 mM NaCl, 5 mM MgCl2, 5 mM CaCl2. […] The bound material is eluted in SDS-tricine sample buffer and separated using 10-20% Tris-tricine gels, followed by transfer to PVDF membrane. The membrane is dried and exposed to Kodak MS film for autoradiography. For intact cell labeling, human embryonic kidney cells (HEK293) grown to ˜80% confluency (˜10^7 cells) are incubated with 0.1 μM ^3H-G01 in Opti-MEM for 2 hours in an incubator at 37° C., with 5% CO2 before being transferred to ice for an additional hour. Medium is removed and cells are washed twice with cold phosphate buffered saline (PBS), pH 7.4. […] The immunoprecipitate is washed 3 times with lysis buffer. The immuno-purified (IP) material is eluted with SDS sample buffer and product is separated using a 10-20% Tris-Tricine SDS-PAGE gel, transferred to PVDF membrane, and the membrane dried and exposed to Kodak MS film for autoradiography.
Endogenous γ-secretase components are detected by specific antibodies to Nicastrin, PS1-CTF and Pen-2. […] After lysis and immunoprecipitation with PS1 antibody, bound proteins are separated by 10-20% Tris-tricine SDS-PAGE.
Intact N2a cell labeling is performed by incubation with ^3H-G01. Cells are lysed with RIPA buffer and proteins were immunoprecipitated with gSAP antibody.

[2] = test system: Aβ in N2a cell system; assay: Total human Aβ in the N2a cell system (sandwich ELISA, Western blot); type: cell-based
Method: Total human Aβ in the N2a cell system is measured in a standard sandwich ELISA by using a specific monoclonal antibody (6E10, Signet Laboratories) to capture the Aβ40 and Aβ42 and an antibody to Aβ17-24 (4G8, Signet Laboratories, Dedham, Mass.) for detection. Cell culture medium (5 μL/well) is diluted to 100 μL in phosphate-buffered saline/0.2% Tween 20 and loaded onto ELISA plates. For Western blot assays, cell medium is diluted with 2× tricine sodium dodecyl sulfate sample buffer, and heated at 95° C. for 5 min. […] Aβ is detected with antibody 4G8 and an Alexa 680-conjugated rabbit anti-mouse secondary and scanned with a LiCor Odyssey infrared scanner.

[3] = test system: mouse ΔE-Notch cleavage; assay: ΔE-Notch cleavage in HEK293 cells incubated with test compounds; type: cell-based, human; conditions: 4 h incubation, DAPT positive control
Method: For detection of Notch cleavage, HEK293 human embryonic kidney cells are transfected with mouse ΔE-Notch cDNA with a C-terminal myc tag. For analysis of ΔE-Notch cleavage, cells are incubated with test compounds for 4 h. Cell extracts are prepared by lysing cells in cell lysis buffer (50 mM Tris, pH7.5, 10 mM NaCl, 5 mM EGTA, 1 mM EDTA and complete protease inhibitors (Roche Diagnostics, Indianapolis, Ind.). Protein concentration is determined using Bradford protein detection reagent. Volume is adjusted with cell lysis buffer, then 4× sample loading buffer (Tris-Tricine gel loading buffer) is added, samples are heated 5 min at 95° C., and equivalent amounts of cell protein for each treatment are loaded onto a 10% Bis-Tris gel. C-terminal Notch species are detected with monoclonal anti-c-myc antibody 9E10 (Roche Diagnostics) and fluorescent goat anti-mouse secondary antibody. Fluorescent antibody is quantitated via LiCor Odyssey infrared fluorescence detector.

[4] = molecular target: panel of 40 kinases; assay: Panel of 40 kinases; type: biochemical; conditions: data not shown
[5] = molecular target: T2, Abl kinase (Homo sapiens, UniProt P00519); assay: Ki versus Abl kinase; type: biochemical
T2 sequence (P00519 whole entry): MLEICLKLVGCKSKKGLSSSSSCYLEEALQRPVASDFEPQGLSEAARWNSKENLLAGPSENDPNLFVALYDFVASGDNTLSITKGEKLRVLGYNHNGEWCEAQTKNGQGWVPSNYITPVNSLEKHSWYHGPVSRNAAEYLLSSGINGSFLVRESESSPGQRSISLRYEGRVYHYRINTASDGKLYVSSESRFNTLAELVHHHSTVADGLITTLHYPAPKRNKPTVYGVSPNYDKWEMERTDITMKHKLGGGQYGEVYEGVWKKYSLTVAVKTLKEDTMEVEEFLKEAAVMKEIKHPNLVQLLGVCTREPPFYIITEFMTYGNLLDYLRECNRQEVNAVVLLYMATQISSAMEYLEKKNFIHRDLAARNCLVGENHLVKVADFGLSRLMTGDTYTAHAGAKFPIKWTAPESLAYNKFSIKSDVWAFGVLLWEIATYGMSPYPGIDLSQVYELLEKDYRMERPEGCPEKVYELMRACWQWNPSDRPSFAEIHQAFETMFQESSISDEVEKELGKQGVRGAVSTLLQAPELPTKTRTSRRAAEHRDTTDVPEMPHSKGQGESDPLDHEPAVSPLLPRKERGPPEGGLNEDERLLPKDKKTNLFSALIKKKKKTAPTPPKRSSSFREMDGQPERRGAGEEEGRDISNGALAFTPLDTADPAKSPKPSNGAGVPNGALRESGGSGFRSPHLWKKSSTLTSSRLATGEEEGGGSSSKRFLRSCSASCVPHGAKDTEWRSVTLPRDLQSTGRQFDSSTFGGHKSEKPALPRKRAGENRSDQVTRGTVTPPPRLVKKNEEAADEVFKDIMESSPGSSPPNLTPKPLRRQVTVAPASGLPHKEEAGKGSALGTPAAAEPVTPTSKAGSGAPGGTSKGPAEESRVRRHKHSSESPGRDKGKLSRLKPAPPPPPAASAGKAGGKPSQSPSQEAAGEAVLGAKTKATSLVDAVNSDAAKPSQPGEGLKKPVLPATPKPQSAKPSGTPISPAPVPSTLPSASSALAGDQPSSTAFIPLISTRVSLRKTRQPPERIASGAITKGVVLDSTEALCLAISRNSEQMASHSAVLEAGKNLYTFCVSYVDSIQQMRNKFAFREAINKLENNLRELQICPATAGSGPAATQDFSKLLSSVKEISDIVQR

[6] = molecular target: T3, gSAP (Mus musculus, UniProt Q3TCV3); assay: siRNA knockdown of gSAP in neuroblastoma cells overexpressing APP695, gSAP level and Aβ; type: cell-based
T3 construct: pulse-chase labeling of endogenous gSAP in N2a cells; endogenous in cells; host or cells: Neuroblastoma 2a cells stably overexpressing APP695
T3 sequence (Q3TCV3 738-858 limits assumed): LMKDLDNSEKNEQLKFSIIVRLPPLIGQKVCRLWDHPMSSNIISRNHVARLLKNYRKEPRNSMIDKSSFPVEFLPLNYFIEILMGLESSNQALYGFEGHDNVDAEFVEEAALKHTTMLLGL
Method: For cellular gSAP knockdown experiments, small interfering RNA (siRNA) of gSAP is purchased from Dharmacon Inc. The sequences of the siRNA used are as follow: sense sequence: [NT]; antisense sequence: 5'-[NT] Neuroblastoma 2a cell line stably overexpressing APP695 is transfected with siRNA using DharmaFect 2 reagent at a concentration of 50 nM following instructions provided by the manufacturer. […] To assay Aβ, the medium is removed after 48 h of transfection and replaced with Opti-MEM for 3 h incubation. Aβ is then immunoprecipitated from conditioned medium using the 4G8 antibody. Quantitation of Aβ levels in the conditioned medium is also assessed using Aβ40 and Aβ42 ELISA kits (Invitrogen). The procedures are carried out according to the manufacturer's instructions.

[7] = test system: Aβ production in Neuroblastoma 2a cells stably overexpressing human APP695; assay: Cellular Aβ production assay, incubation with G01 (4G8 immunoprecipitation, 6E10 blot); type: cell-based; conditions: 10 μM, 3 hr
Method: Neuroblastoma 2a cells stably overexpressing human APP695 are treated with 10 μM G01 for 3 hr. Cells treated with DMSO, or DMSO plus imatinib are used as controls. After 3 hr, conditioned medium is collected and Aβ immunoprecipitation is conducted using 4G8 antibody. The immunoprecipitated Aβ is separated on 10-20% Tris-tricine gel, transferred to PVDF membrane and detected by 6E10 antibody. […]

[8] = molecular target: PDGF receptor; assay: Kinase profiling (Millipore standard assay), PDGF receptor; conditions: ATP=45 μM
[9] = molecular target: T2, Abl kinase; assay: Kinase profiling (Millipore standard assay), Abl kinase
[10] = molecular target: T4, gSAP (16 kDa band) (Homo sapiens, UniProt A4D1B5); assay: Affinity capture on immobilized biotin-imatinib beads, silver staining; type: binding; conditions: HEK293 cell lysates, SDS-PAGE
T4 construct: the 16 kDa band is identified as the C-terminal domain of gSAP by MS/MS mass spectrometry; endogenous in cells; host or cells: CHAPSO-solubilized membrane extract of HEK293 cells
T4 sequence (A4D1B5 734-854 limits assumed): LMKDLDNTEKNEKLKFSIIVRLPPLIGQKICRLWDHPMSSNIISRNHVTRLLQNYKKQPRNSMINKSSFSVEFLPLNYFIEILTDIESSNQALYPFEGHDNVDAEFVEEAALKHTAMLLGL
Method: After cell debris is cleared by centrifugation at 1,000 g for 5 mins, the supernatant is subjected to ultracentrifugation at 100,000 g for 1 h. The membrane pellet is then solubilized on ice in 50 mM Hepes, 150 mM NaCl, 5 mM MgCl2, 5 mM CaCl2, and 1% CHAPSO containing protease inhibitors (Roche Inc. cat#04 693 132 001) for 1 h and subject to ultracentrifugation for 1 h at 100,000 g. The soluble membrane extracts are incubated with Myonen™ streptavidin T1 beads (cat#656-01, Invitrogen) containing bound active biotin-imatinib for 3 hr at 4° C. Subsequently, the beads are washed three times with lysate buffer. Bound proteins are eluted with tricine SDS-PAGE sample buffer and separated on 10-20% tris-tricine gels. For immunoblotting, the gel is then transferred to PVDF membrane and probed with γ-secretase antibodies: PS1 antibody (cat#529592) and Pen-2 antibody (cat#NE1008) are from EMD Biosciences and nicastrin antibody is from BD Transduction Laboratories (cat#612290). Silver staining is used to identify protein bands in SDS-PAGE gels. The ˜16 kDa band is excised, trypsinized, and sequenced by tandem MS/MS mass spectrometry.
Endogenous γ-secretase components are detected by specific antibodies to Nicastrin, PS1-CTF and Pen-2. Photoactivatible ^125I and ^3H-G01 are used to label membrane preparations or intact HEK293 cells, respectively. […]

[11] = molecular target: T5, γ-secretase (Homo sapiens, UniProt P49768); assay: In vitro γ-secretase assay, membranes from HEK293 cells with APP-β-CTF; type: biochemical
T5 construct: Membrane pellets are prepared from HEK293 cells transfected with APP-β-CTF (CT-100) as described above; endogenous in cells; host or cells: membranes of HEK293 cells transfected with APP-β-CTF (CT-100); gSAP-16K added from BL21 DE3 E. coli
Method: Membrane pellets are prepared from HEK293 cells transfected with APP-β-CTF (CT-100) as described above, and the membranes are washed with assay buffer (10 mM Hepes, 140 mM KOAc, 2.5 mM MgOAc, 0.1 mM CaCl2, 1 mM ATP, pH 7.2) and pelleted at 100,000 g for 30 min at 4° C. Recombinant gSAP-16K (aa733-854 of the human gSAP) is expressed and purified from BL21 DE3 E. coli. The membranes are resuspended in 200 μl of assay buffer with 2 μg recombinant gSAP-16K or the same amount of BSA as control. A parallel system with 1 μM L685,458 (γ-secretase inhibitor) is also used as a control. The membrane suspension is pre-incubated at 4° C. for 1 hr and then incubated for 2 hr at 37° C. to allow in vitro generation of Aβ. The membranes are solubilized in ¼ volume of 200 mM Tris, pH 7.8, 760 mM NaCl, 24 mM EDTA, 10% Triton X-100, and insoluble material is removed by centrifugation at 10,000 g for 20 min. Aβ is immunoprecipitated from the lysate using 4G8 antibody, separated on 10-20% Tris-tricine gel, transferred to PVDF membrane, and subjected to autoradiography using Kodak MR film.

[12] = test system: Aβ production; conditions: Netzer et al. 2003; cited from earlier work

Cc1ccc(NC(=O)c2ccc(N=[N+]=[N-])cc2O)cc1Nc1nccc(-c2cccnc2)n1 [^3H-G01]
photolabeling of the 16 kDa protein (gSAP-16K) [1]: specifically labeled

Cc1ncc(NC(=O)c2ccc(CC3CCN(C)CC3)cc2)cc1Nc1nccc(-c2ccccc2)n1 [N-(6-methyl-5-(4-phenylpyrimidin-2-ylamino)pyridin-3-yl)-4-((1-methylpiperidin-4-yl)methyl)benzamide]
concentrations that significantly lower Aβ [2]: < 500 nM | influence on NOTCH metabolism [3]: do not influence NOTCH metabolism | kinase inhibitory activity against a panel of 40 kinases [4]: little kinase inhibitory activity | Ki [5]: ~12 µM | weaker activity versus Abl kinase compared to imatinib [5]: 100 fold

siRNA: siRNA of gSAP, sense AUGCAGAGCUGGACGACAUUU, antisense 5′-P.AUGUCGUCCAGCUCUGCAUUU (5'-phosphate on antisense, further chemistry not given here)
decrease of the level of Aβ ([6]; gSAP siRNA knockdown): about 50% | reduction of gSAP level ([6]; siRNA 50 nM): 72±15%

Cc1ccc(NC(=O)c2ccc(N=[N+]=[N-])cc2O)cc1Nc1nccc(-c2cccnc2)n1 [G01, 4-azido-2-hydroxy-N-(4-methyl-3-(4-(pyridin-3-yl)pyrimidin-2-ylamino)phenyl)benzamide]
Aβ in conditioned medium compared to DMSO vehicle [7]: significantly reduces Aβ

Cc1ccc(NC(=O)c2ccc(CN3CCN(CCNC(=O)CCCC[C@@H]4SC[C@@H]5NC(=O)N[C@@H]54)CC3)cc2)cc1Nc1nccc(-c2cccnc2)n1 [IC339239]
IC50 ([8]; read-out: IC50 against PDGF receptor): 6.6 µM | IC50 [9]: 146 nM

Cc1ccc(NC(=O)c2ccc(CN3CCN(C(=O)CCCC[C@@H]4SC[C@@H]5NC(=O)N[C@@H]54)CC3)cc2)cc1Nc1nccc(-c2cccnc2)n1 [IC200001]
inhibitory activity toward PDGF receptor [8]: no significant inhibitory activity | inhibitory activity toward Abl kinase ([9]; ATP=45 μM): no significant inhibitory activity | binding of the ~16 kDa band (gSAP) to the immobilized compound [10]: does not bind

CC(C)C[C@H](NC(=O)[C@H](Cc1ccccc1)C[C@@H](O)[C@H](Cc1ccccc1)NC(=O)OC(C)(C)C)C(=O)N[C@@H](Cc1ccccc1)C(N)=O [L685,458, reference compound]
Aβ production in the in vitro γ-secretase assay ([11]; 1 μM): abolishes Aβ production

Cc1ccc(NC(=O)c2ccc(CN3CCN(C)CC3)cc2)cc1Nc1nccc(-c2cccnc2)n1 [imatinib, reference compound]
additional effect of imatinib on Aβ levels under gSAP siRNA knockdown [6]: not additive; also recorded: little or no additional effect | production of Aβ [12]: inhibits production of Aβ

B1: gSAP-16K: recombinant 16 kDa C-terminal fragment, aa 733-854 of human gSAP, expressed in E. coli (protein, UniProt A4D1B5 733-854, looked up, fragment)
chain: RLMKDLDNTEKNEKLKFSIIVRLPPLIGQKICRLWDHPMSSNIISRNHVTRLLQNYKKQPRNSMINKSSFSVEFLPLNYFIEILTDIESSNQALYPFEGHDNVDAEFVEEAALKHTAMLLGL
stimulation of Aβ production ([11]; 2 μg recombinant gSAP-16K added to membranes, BSA control): 2.4±0.3 fold
